Blank lines part the entries; values can stand above or below the compound they belong to.
Assays:
[1] = biological target: T1, RTN4 Reticulon-4 (Homo sapiens, UniProt Q9NQC3); assay: competitive isoTOP-ABPP; assay type: binding; details: for isoTOP-ABPP ratio (R) at liganded lysine Q9NQC3_K1104 / isoTOP-ABPP reactivity ratio at lysine Q9NQC3_K1104 / R value (DMSO/fragment) for probe 1 labeling: 50 uM, in vitro; for isoTOP-ABPP ratio (R) at liganded lysine Q9NQC3_K1104: sol, 231; for isoTOP-ABPP reactivity ratio at lysine Q9NQC3_K1104 / R value (DMSO/fragment) for probe 1 labeling: 231 sol; for R value (DMSO/fragment) for probe 1 labeling: Q9NQC3_K1104
T1 construct: endogenous in cells; host or cells: MDA-MB-231 lysate
T1 sequence (Q9NQC3 1-1192): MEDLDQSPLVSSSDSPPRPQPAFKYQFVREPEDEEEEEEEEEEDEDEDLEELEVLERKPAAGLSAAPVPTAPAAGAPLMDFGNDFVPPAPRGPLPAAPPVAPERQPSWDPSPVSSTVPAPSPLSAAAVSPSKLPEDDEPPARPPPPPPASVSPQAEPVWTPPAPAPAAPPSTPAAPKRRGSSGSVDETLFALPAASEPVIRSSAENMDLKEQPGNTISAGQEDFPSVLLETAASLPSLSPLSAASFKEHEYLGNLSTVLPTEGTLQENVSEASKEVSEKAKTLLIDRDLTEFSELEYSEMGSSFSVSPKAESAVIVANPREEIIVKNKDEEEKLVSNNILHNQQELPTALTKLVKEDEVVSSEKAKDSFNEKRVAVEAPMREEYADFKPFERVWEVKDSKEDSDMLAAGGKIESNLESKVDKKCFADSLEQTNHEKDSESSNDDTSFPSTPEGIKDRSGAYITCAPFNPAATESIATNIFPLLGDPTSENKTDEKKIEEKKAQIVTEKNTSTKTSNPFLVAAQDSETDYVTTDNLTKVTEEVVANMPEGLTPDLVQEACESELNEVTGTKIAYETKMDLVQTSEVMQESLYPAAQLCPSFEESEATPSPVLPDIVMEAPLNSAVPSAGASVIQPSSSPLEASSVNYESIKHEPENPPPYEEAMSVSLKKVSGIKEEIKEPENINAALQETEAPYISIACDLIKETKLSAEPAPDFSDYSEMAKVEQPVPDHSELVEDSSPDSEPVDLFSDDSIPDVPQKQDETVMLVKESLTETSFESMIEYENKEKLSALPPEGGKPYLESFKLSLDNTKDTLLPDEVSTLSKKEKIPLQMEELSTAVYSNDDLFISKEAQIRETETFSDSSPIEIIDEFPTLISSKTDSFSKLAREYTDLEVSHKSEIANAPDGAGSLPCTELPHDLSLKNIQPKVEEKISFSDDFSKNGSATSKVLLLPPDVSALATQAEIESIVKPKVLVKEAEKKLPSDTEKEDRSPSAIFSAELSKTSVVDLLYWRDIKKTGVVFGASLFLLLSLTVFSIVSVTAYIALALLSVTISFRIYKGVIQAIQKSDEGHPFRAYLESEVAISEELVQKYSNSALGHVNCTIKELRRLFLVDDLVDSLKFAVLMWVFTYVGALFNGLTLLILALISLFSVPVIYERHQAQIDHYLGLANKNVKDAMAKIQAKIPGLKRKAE
How it was run: (§1)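 Here, isoTOP-ABPP measures loss of STP-alkyne labeling at individual lysines after fragment exposure in lysate. Activated esters are dosed at 50 μM, guanidinylating agents at 100 μM; the probe follows at 0.1 mM for 1 h. R ≥4 marks a liganded lysine.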

[2] = biological target: T2, RPS10 40S ribosomal protein S10 (Homo sapiens, UniProt P46783); assay: competitive isoTOP-ABPP; assay type: binding; details: for R value (DMSO/fragment) for probe 1 labeling: P46783_K139; for R value (DMSO/fragment) for probe 1 labeling / isoTOP-ABPP ratio (R) at liganded lysine P46783_K139 / isoTOP-ABPP reactivity ratio at lysine P46783_K139: 50 uM, in vitro; for R value (DMSO/fragment) for probe 1 labeling / isoTOP-ABPP reactivity ratio at lysine P46783_K139: 231 sol; for isoTOP-ABPP ratio (R) at liganded lysine P46783_K139: sol, 231
T2 construct: isoTOP-ABPP experiments performed in cell lysates (in vitro); endogenous in cells; host or cells: soluble proteome of human cancer cell lines (MDA-MB-231; Ramos and Jurkat also prepared)
How it was run: as §1

SMILES: CC(C)(C)OC(=O)NCCCC(=O)Oc1ccc([N+](=O)[O-])cc1[N+](=O)[O-] [fragment 41, 2,4-Dinitrophenyl 4-((tert-butoxycarbonyl)amino)butanoate]
isoTOP-ABPP ratio (R) at liganded lysine Q9NQC3_K1104 [1]: 4.3

R value (DMSO/fragment) for probe 1 labeling [2]: 0.9
SMILES: Cn1cc(CC(=O)Oc2c(F)c(F)c(F)c(F)c2F)c2ccccc21 [fragment 22, Pentafluorophenyl 2-(1-methyl-1H-indol-3-yl)acetate]

SMILES: O=C(Oc1ccc([N+](=O)[O-])cc1[N+](=O)[O-])c1ccc(-c2ccccc2)cc1 [fragment 37, 2,4-Dinitrophenyl [1,1′-biphenyl]-4-carboxylate]
isoTOP-ABPP ratio (R) at liganded lysine P46783_K139 [2]: 0.6 | isoTOP-ABPP ratio (R) at liganded lysine Q9NQC3_K1104 [1]: 3.4

SMILES: COc1cc(CCC(=O)Oc2ccc([N+](=O)[O-])cc2[N+](=O)[O-])cc(OC)c1OC [fragment 33, 2,4-Dinitrophenyl 3-(3,4,5-trimethoxyphenyl)propanoate]
isoTOP-ABPP reactivity ratio at lysine P46783_K139 [2]: 0.7 | isoTOP-ABPP reactivity ratio at lysine Q9NQC3_K1104 [1]: 4.3

R value (DMSO/fragment) for probe 1 labeling [2]: 0.6 | R value (DMSO/fragment) for probe 1 labeling [1]: 2.4
SMILES: O=C(Oc1c(F)c(F)c(F)c(F)c1F)C(c1ccccc1)c1ccccc1 [fragment 20, Pentafluorophenyl 2,2-diphenylacetate]

SMILES: O=C(Oc1ccc([N+](=O)[O-])cc1[N+](=O)[O-])c1ccc2ccccc2n1 [fragment 35, 2,4-Dinitrophenyl quinoline-2-carboxylate]
isoTOP-ABPP ratio (R) at liganded lysine Q9NQC3_K1104 [1]: 6.0

R value (DMSO/fragment) for probe 1 labeling [1]: 3.3
SMILES: COc1cc(CCC(=O)Oc2c(F)c(F)c(F)c(F)c2F)cc(OC)c1OC [fragment 23, Pentafluorophenyl 3-(3,4,5-trimethoxyphenyl)propanoate]

SMILES: O=C(Oc1ccc([N+](=O)[O-])cc1[N+](=O)[O-])c1ccccc1Nc1cccc(C(F)(F)F)c1 [fragment 40, 2,4-Dinitrophenyl 2-((3-(trifluoromethyl)phenyl)amino)benzoate]
isoTOP-ABPP ratio (R) at liganded lysine Q9NQC3_K1104 [1]: 2.1

SMILES: O=C(ON1C(=O)CCC1=O)c1cc(C(F)(F)F)cc(C(F)(F)F)c1 [fragment 46, 3,5-Bis(trifluoromethyl)benzoic acid NHS ester]
isoTOP-ABPP ratio, lysine Q9NQC3_K1104 ([1]; 50 uM_231_sol_in vitro): 2.5

SMILES: O=C(Oc1ccc([N+](=O)[O-])cc1[N+](=O)[O-])C(c1ccccc1)c1ccccc1 [fragment 30, 2,4-Dinitrophenyl 2,2-diphenylacetate]
isoTOP-ABPP reactivity ratio at lysine P46783_K139 [2]: 1.2

SMILES: O=C(Oc1ccc([N+](=O)[O-])cc1[N+](=O)[O-])c1cc(C(F)(F)F)cc(C(F)(F)F)c1 [fragment 31, 2,4-Dinitrophenyl 3,5-bis(trifluoromethyl)benzoate]
isoTOP-ABPP reactivity ratio at lysine Q9NQC3_K1104 [1]: 6.1

SMILES: CC(=O)Oc1ccc([N+](=O)[O-])cc1[N+](=O)[O-] [fragment 43, 2,4-Dinitrophenyl acetate]
isoTOP-ABPP ratio (R) at liganded lysine Q9NQC3_K1104 [1]: 1.4

SMILES: O=C(Oc1ccc([N+](=O)[O-])cc1[N+](=O)[O-])C(c1ccccc1)(c1ccccc1)c1ccccc1 [fragment 42, 2,4-Dinitrophenyl 2,2,2-triphenylacetate]
isoTOP-ABPP ratio (R) at liganded lysine P46783_K139 [2]: 1.0 | isoTOP-ABPP ratio (R) at liganded lysine Q9NQC3_K1104 [1]: 1.2

R value (DMSO/fragment) for probe 1 labeling [2]: 0.5 | R value (DMSO/fragment) for probe 1 labeling [1]: 2.5
SMILES: O=C(Oc1c(F)c(F)c(F)c(F)c1F)c1cc(C(F)(F)F)cc(C(F)(F)F)c1 [fragment 21, Pentafluorophenyl 3,5-bis(trifluoromethyl)benzoate]

SMILES: Cn1cc(CC(=O)Oc2ccc([N+](=O)[O-])cc2[N+](=O)[O-])c2ccccc21 [fragment 32, 2,4-Dinitrophenyl 2-(1-methyl-1H-indol-3-yl)acetate]
isoTOP-ABPP reactivity ratio at lysine Q9NQC3_K1104 [1]: 20.0

SMILES: O=C(CCc1cn(-c2ccccc2)nc1-c1ccccc1)Oc1ccc([N+](=O)[O-])cc1[N+](=O)[O-] [fragment 29, 2,4-Dinitrophenyl 3-(1,3-diphenyl-1H-pyrazol-4-yl)propanoate]
isoTOP-ABPP reactivity ratio at lysine P46783_K139 [2]: 20.0 | isoTOP-ABPP reactivity ratio at lysine Q9NQC3_K1104 [1]: 15.6

isoTOP-ABPP reactivity ratio at lysine P46783_K139 [2]: 1.2 | isoTOP-ABPP reactivity ratio at lysine Q9NQC3_K1104 [1]: 2.3
SMILES: O=C(Oc1c(F)c(F)c(F)c(F)c1F)C1CCN(C(=O)OCc2ccccc2)CC1 [fragment 24, 1-Benzyl 4-(pentafluorophenyl) piperidine-1,4-dicarboxylate]

isoTOP-ABPP ratio, lysine Q9NQC3_K1104 ([1]; 50 uM_231_sol_in vitro): 0.7
SMILES: NC(=O)c1cc(C(F)(F)F)cc(C(F)(F)F)c1 [fragment 51, reference compound]

SMILES: N#Cc1ccc(C(=O)Oc2ccc([N+](=O)[O-])cc2[N+](=O)[O-])cc1 [fragment 44, 2,4-Dinitrophenyl 4-cyanobenzoate]
isoTOP-ABPP ratio, lysine P46783_K139 ([2]; 50 uM_231_sol_in vitro): 0.6 | isoTOP-ABPP ratio, lysine Q9NQC3_K1104 ([1]; 50 uM_231_sol_in vitro): 2.6

isoTOP-ABPP reactivity ratio at lysine P46783_K139 [2]: 1.0 | isoTOP-ABPP reactivity ratio at lysine Q9NQC3_K1104 [1]: 5.3
SMILES: O=C(CCc1coc2cc(F)ccc2c1=O)Oc1c(F)c(F)c(F)c(F)c1F [fragment 26, Pentafluorophenyl 3-(7-fluoro-4-oxo-4H-chromen-3-yl)propanoate]

SMILES: O=C(CC12CC3CC(CC(C3)C1)C2)Oc1ccc([N+](=O)[O-])cc1[N+](=O)[O-] [fragment 38, 2,4-Dinitrophenyl 2-(adamantan-1-yl)acetate]
isoTOP-ABPP ratio (R) at liganded lysine P46783_K139 [2]: 1.0

isoTOP-ABPP ratio, lysine P46783_K139 ([2]; 100 uM_231_sol_in vitro): 1.1 | isoTOP-ABPP ratio, lysine Q9NQC3_K1104 ([1]; 100 uM_231_sol_in vitro): 1.4
SMILES: CC(C)(C)OC(=O)N=C(NC(=O)OC(C)(C)C)n1cccn1 [fragment 50, reference compound]

SMILES: O=C(CCc1coc2cc(F)ccc2c1=O)Oc1ccc([N+](=O)[O-])cc1[N+](=O)[O-] [fragment 36, 2,4-Dinitrophenyl 3-(7-fluoro-4-oxo-4H-chromen-3-yl)propanoate]
isoTOP-ABPP ratio (R) at liganded lysine P46783_K139 [2]: 0.7

isoTOP-ABPP ratio, lysine Q9NQC3_K1104 ([1]; 50 uM_231_sol_in vitro): 3.8
SMILES: O=C(Oc1c(F)c(F)c(C(F)(F)F)c(F)c1F)c1cc(C(F)(F)F)cc(C(F)(F)F)c1 [fragment 47, 2,3,5,6-Tetrafluoro-4-(trifluoromethyl)phenyl 3,5-bis(trifluoromethyl)benzoate]

isoTOP-ABPP ratio, lysine P46783_K139 ([2]; 100 uM_231_sol_in vitro): 20.0
SMILES: COC(=O)NC(=NC(=O)OCC1c2ccccc2-c2ccccc21)n1cccn1 [fragment 49, N-Methoxycarbonyl-N′-9-fluorenylmethoxycarbonyl-pyrazole-1-carboxamidine]

isoTOP-ABPP reactivity ratio at lysine Q9NQC3_K1104 [1]: 1.0
SMILES: CCn1cc(C(=O)Oc2c(F)c(F)c(F)c(F)c2F)c(=O)c2ccc(C)nc21 [fragment 28, Pentafluorophenyl 1-ethyl-7-methyl-4-oxo-1,4-dihydro-1,8-naphthyridine-3-carboxylate]

R value (DMSO/fragment) for probe 1 labeling [2]: 1.0
SMILES: O=C(CCc1cn(-c2ccccc2)nc1-c1ccccc1)Oc1c(F)c(F)c(F)c(F)c1F [fragment 19, Pentafluorophenyl 3-(1,3-diphenyl-1H-pyrazol-4-yl)propanoate]

isoTOP-ABPP ratio, lysine P46783_K139 ([2]; 50 uM_231_sol_in vitro): 0.8
SMILES: O=C(Oc1c(F)c(F)cc(F)c1F)c1cc(C(F)(F)F)cc(C(F)(F)F)c1 [fragment 48, 2,3,5,6-Tetrafluorophenyl 3,5-bis(trifluoromethyl)benzoate]
